Laboratory results as given in patent US20080153896A1, “Polymorphic Forms of an HMG-CoA Reductase Inhibitor and Uses Thereof” (priority 2006, published 2008).

Assay: Stability (integrity) testing of amorphous and polymorphic form under storage conditions, RP-HPLC
Type: physicochemical
Set-up: Impurity RRT 1.104 / Impurity RRT 1.698: unit not given beside the values
Description: The integrity of the different forms of the (3R, 5R)-7-[2-(4-fluorophenyl)-5-isopropyl-3-phenyl-4-[(4-hydroxymethylphenylamino)carbonyl]-pyrrol-1-yl]-3,5-dihydroxy-heptanoic acid, hemi calcium salt, was tested under different atmospheric conditions to determine the stability of the amorphous and polymorphic form of the drug in various storage environments. Reversed Phase-HPLC (RP-HPLC) was used to separate (3R, 5R)-7-[2-(4-fluorophenyl)-5-isopropyl-3-phenyl-4-[(4-hydroxymethylphenylamino)carbonyl]-pyrrol-1-yl]-3,5-dihydroxy-heptanoic acid, hemi calcium salt, from smaller molecules representing breakdown products as well as oxidized drug. The relative amount of the drug was reported as a percent of total absorption by UV. The total peak area of all UV absorption impurities was used to define total impurity of the drug. Impurities are defined by their relative retention time (RRT) compared to native drug. Samples were injected onto a C18 column using standard temperature, gradient and run-time conditions.
The results of this integrity testing for the amorphous form of (3R, 5R)-7-[2-(4-fluorophenyl)-5-isopropyl-3-phenyl-4-[(4-hydroxymethylphenylamino)carbonyl]-pyrrol-1-yl]-3,5-dihydroxy-heptanoic acid, hemi calcium salt, is shown in Table 5.
Three separate batches of polymorphic Form I of (3R, 5R)-7-[2-(4-fluorophenyl)-5-isopropyl-3-phenyl-4-[(4-hydroxymethylphenylamino)carbonyl]-pyrrol-1-yl]-3,5-dihydroxy-heptanoic acid, hemi calcium salt, were prepared and tested under the same atmospheric conditions described for the amorphous form.

[1] = 25° C./60% RH 3M, hemi calcium salt
[2] = 25° C./60% RH 9M, hemi calcium salt

Description (5° C. 1M): White
Impurity RRT 1.096 (5° C. 1M): 0.248
Impurity RRT 1.183 (5° C. 1M): 0.051
Impurity RRT 1.439 (5° C. 1M): 0.17
Impurity RRT 1.596 (5° C. 1M): 0.086
Impurity RRT 1.698 (5° C. 1M): 0.068
Assay (5° C. 1M, hemi calcium salt): 98.36 % W/W
Highest Impurity (5° C. 1M, hemi calcium salt): 0.459
Impurity RRT 0.935 (5° C. 1M, hemi calcium salt): 0.412
Impurity RRT 1.045 (5° C. 1M, hemi calcium salt): 0.459
Impurity RRT 1.64 (5° C. 1M, hemi calcium salt): 0.063
Total Impurity (5° C. 1M, hemi calcium salt): 1.56
Water (5° C. 1M, hemi calcium salt): 4.45 % W/W
Description (5° C. 2M): White
Impurity RRT 1.096 (5° C. 2M): 0.233
Impurity RRT 1.183 (5° C. 2M): 0.06
Impurity RRT 1.439 (5° C. 2M): 0.163
Impurity RRT 1.596 (5° C. 2M): 0.079
Impurity RRT 1.698 (5° C. 2M): 0.07
Assay (5° C. 2M, hemi calcium salt): 98.24 % W/W
Highest Impurity (5° C. 2M, hemi calcium salt): 0.443
Impurity RRT 0.935 (5° C. 2M, hemi calcium salt): 0.413
Impurity RRT 1.045 (5° C. 2M, hemi calcium salt): 0.443
Impurity RRT 1.64 (5° C. 2M, hemi calcium salt): 0.06
Total Impurity (5° C. 2M, hemi calcium salt): 1.52
Water (5° C. 2M, hemi calcium salt): 4.31 % W/W
Description (5° C. 3M): White
Impurity RRT 1.096 (5° C. 3M): 0.216
Impurity RRT 1.439 (5° C. 3M): 0.150
Impurity RRT 1.596 (5° C. 3M): 0.068
Impurity RRT 1.698 (5° C. 3M): 0.068
Total Impurity (5° C. 3M): 1.35
Assay (5° C. 3M, hemi calcium salt): 98.19 % W/W
Highest Impurity (5° C. 3M, hemi calcium salt): 0.414
Impurity RRT 0.935 (5° C. 3M, hemi calcium salt): 0.376
Impurity RRT 1.045 (5° C. 3M, hemi calcium salt): 0.414
Impurity RRT 1.64 (5° C. 3M, hemi calcium salt): 0.055
Water (5° C. 3M, hemi calcium salt): 3.90 % W/W
Description (5° C. 4M): White
Impurity RRT 0.138 (5° C. 4M): 0.228
Impurity RRT 1.096 (5° C. 4M): 0.205
Impurity RRT 1.439 (5° C. 4M): 0.159
Impurity RRT 1.596 (5° C. 4M): 0.060
Impurity RRT 1.698 (5° C. 4M): 0.052
Assay (5° C. 4M, hemi calcium salt): 98.17 % W/W
Highest Impurity (5° C. 4M, hemi calcium salt): 0.427
Impurity RRT 0.935 (5° C. 4M, hemi calcium salt): 0.341
Impurity RRT 1.045 (5° C. 4M, hemi calcium salt): 0.427
Impurity RRT 1.640 (5° C. 4M, hemi calcium salt): 0.051
Total Impurity (5° C. 4M, hemi calcium salt): 1.523
Water (5° C. 4M, hemi calcium salt): 5.08 % W/W
Description (5° C. 5M): White
Impurity RRT 0.138 (5° C. 5M): 0.22
Impurity RRT 1.096 (5° C. 5M): 0.236
Impurity RRT 1.439 (5° C. 5M): 0.122
Impurity RRT 1.596 (5° C. 5M): 0.054
Impurity RRT 1.698 (5° C. 5M): 0.065
Assay (5° C. 5M, hemi calcium salt): 98.27 % W/W
Highest Impurity (5° C. 5M, hemi calcium salt): 0.401
Impurity RRT 0.935 (5° C. 5M, hemi calcium salt): 0.373
Impurity RRT 1.045 (5° C. 5M, hemi calcium salt): 0.401
Impurity RRT 1.640 (5° C. 5M, hemi calcium salt): 0.047
Total Impurity (5° C. 5M, hemi calcium salt): 1.527
Water (5° C. 5M, hemi calcium salt): 4.67 % W/W
Description (5° C. 6M): White
Impurity RRT 0.138 (5° C. 6M): 0.238
Impurity RRT 1.096 (5° C. 6M): 0.189
Impurity RRT 1.183 (5° C. 6M): 0.056
Impurity RRT 1.439 (5° C. 6M): 0.146
Impurity RRT 1.596 (5° C. 6M): 0.080
Impurity RRT 1.698 (5° C. 6M): 0.059
Water (5° C. 6M): 5.04 % W/W
Assay (5° C. 6M, hemi calcium salt): 98.61 % W/W
Highest Impurity (5° C. 6M, hemi calcium salt): 0.438
Impurity RRT 0.935 (5° C. 6M, hemi calcium salt): 0.373
Impurity RRT 1.045 (5° C. 6M, hemi calcium salt): 0.438
Impurity RRT 1.640 (5° C. 6M, hemi calcium salt): 0.048
Total Impurity (5° C. 6M, hemi calcium salt): 1.627
Description (5° C. 9M): White
Impurity RRT 0.138 (5° C. 9M): 0.228
Impurity RRT 1.096 (5° C. 9M): 0.205
Impurity RRT 1.439 (5° C. 9M): 0.188
Impurity RRT 1.596 (5° C. 9M): 0.061
Impurity RRT 1.698 (5° C. 9M): 0.082
Assay (5° C. 9M, hemi calcium salt): 97.96 % W/W
Highest Impurity (5° C. 9M, hemi calcium salt): 0.400
Impurity RRT 0.935 (5° C. 9M, hemi calcium salt): 0.366
Impurity RRT 1.045 (5° C. 9M, hemi calcium salt): 0.400
Impurity RRT 1.640 (5° C. 9M, hemi calcium salt): 0.056
Total Impurity (5° C. 9M, hemi calcium salt): 1.586
Water (5° C. 9M, hemi calcium salt): 4.64 % W/W
Description (5° C. 12M): White
Impurity RRT 0.138 (5° C. 12M): 0.259
Impurity RRT 1.096 (5° C. 12M): 0.208
Impurity RRT 1.183 (5° C. 12M): 0.033
Impurity RRT 1.439 (5° C. 12M): 0.141
Impurity RRT 1.596 (5° C. 12M): 0.053
Impurity RRT 1.698 (5° C. 12M): 0.045
Assay (5° C. 12M, hemi calcium salt): 98.27 % W/W
Highest Impurity (5° C. 12M, hemi calcium salt): 0.412
Impurity RRT 0.935 (5° C. 12M, hemi calcium salt): 0.392
Impurity RRT 1.045 (5° C. 12M, hemi calcium salt): 0.412
Impurity RRT 1.640 (5° C. 12M, hemi calcium salt): 0.050
Total Impurity (5° C. 12M, hemi calcium salt): 1.593
Water (5° C. 12M, hemi calcium salt): 5.03 % W/W
Description (25° C./60% RH 3M): White
Impurity RRT 1.096 (25° C./60% RH 3M): 0.214
Impurity RRT 1.439 (25° C./60% RH 3M): 0.158
Impurity RRT 1.596 (25° C./60% RH 3M): 0.067
Impurity RRT 1.698 (25° C./60% RH 3M): 0.065
Assay [1]: 98.15 % W/W
Highest Impurity [1]: 0.427
Impurity RRT 0.935 [1]: 0.383
Impurity RRT 1.045 [1]: 0.427
Impurity RRT 1.64 [1]: 0.051
Total Impurity [1]: 1.37
Water [1]: 4.74 % W/W
Assay (25° C./60% RH 6M): 98.15 % W/W
Description (25° C./60% RH 6M): White
Highest Impurity (25° C./60% RH 6M): 0.405
Impurity RRT 0.138 (25° C./60% RH 6M): 0.113
Impurity RRT 0.935 (25° C./60% RH 6M): 0.338
Impurity RRT 1.045 (25° C./60% RH 6M): 0.405
Impurity RRT 1.096 (25° C./60% RH 6M): 0.233
Impurity RRT 1.439 (25° C./60% RH 6M): 0.142
Impurity RRT 1.596 (25° C./60% RH 6M): 0.066
Impurity RRT 1.640 (25° C./60% RH 6M): 0.035
Impurity RRT 1.698 (25° C./60% RH 6M): 0.056
Total Impurity (25° C./60% RH 6M): 1.388
Water (25° C./60% RH 6M): 5.04 % W/W
Description (25° C./60% RH 9M): White
Impurity RRT 0.138 (25° C./60% RH 9M): 0.111
Impurity RRT 1.096 (25° C./60% RH 9M): 0.212
Impurity RRT 1.183 (25° C./60% RH 9M): 0.039
Impurity RRT 1.439 (25° C./60% RH 9M): 0.155
Impurity RRT 1.596 (25° C./60% RH 9M): 0.042
Impurity RRT 1.698 (25° C./60% RH 9M): 0.063
Assay [2]: 98.06 % W/W
Highest Impurity [2]: 0.389
Impurity RRT 0.935 [2]: 0.375
Impurity RRT 1.045 [2]: 0.389
Impurity RRT 1.640 [2]: 0.045
Total Impurity [2]: 1.431
Water [2]: 5.31 % W/W
Description (25° C./60% RH 12M): White
Impurity RRT 0.138 (25° C./60% RH 12M): 0.199
Impurity RRT 1.096 (25° C./60% RH 12M): 0.212
Impurity RRT 1.183 (25° C./60% RH 12M): 0.036
Structure (SMILES): CC(C)c1c(C(=O)Nc2ccc(CO)cc2)c(-c2ccccc2)c(-c2ccc(F)cc2)n1CC[C@@H](O)C[C@@H](O)CC(=O)[O-].CC(C)c1c(C(=O)Nc2ccc(CO)cc2)c(-c2ccccc2)c(-c2ccc(F)cc2)n1CC[C@@H](O)C[C@@H](O)CC(=O)[O-].[Ca+2] [PP00105, (3R, 5R)-7-[2-(4-fluorophenyl)-5-isopropyl-3-phenyl-4-[(4-hydroxymethylphenylamino)carbonyl]-pyrrol-1-yl]-3,5-dihydroxy-heptanoic acid, hemi calcium salt]
